From publication PMC6315362, “Cytotoxic Potential of the Novel Horseshoe Crab Peptide Polyphemusin III” (Marine Drugs, 2018)
Several values for one entry are separate records, joined by “and”; a condition that tells them apart may be missing. Equal values may be shown once. Where a SMILES comes first, the peptide text is derived from it. Bridges are numbered along the chain shown (N, C = ends).

Key:
[1] = RP-HPLC retention time as measure of hydrophobicity; type: physicochemical; settings: semi-preparative RP-HPLC, C18 column, linear gradient 5 to 80% (v/v) acetonitrile in water with 0.1% TFA within 1 h; used as indicator of hydrophobicity
Text: The PM III IC50 values were lower than those determined for PM I and PM II. We speculate that the higher cytotoxicity of PM III might be due to its higher hydrophobicity. In comparison to other tested peptides, the retention time of PM III measured during RP-HPLC indicated its higher hydrophobicity (Table 1). […] Increased hydrophobicity of these analogs caused higher cytotoxic effects. […] Cell membranes contain different phospholipids, which sustain the amphipathic features due to the formation of hydrophilic and hydrophobic domains in the membrane structure. Well-known differences between the composition of bacterial and mammalian cell membranes provide the evidence for selectivity of the peptides’ action. Bacterial membranes predominantly consist of phosphatidylserine, phosphatidylglycerol, and cardiolipin having a net negative charge. Tumor cell bilayers are also enriched in anionic molecules, such as phosphatidylserine, sialylated gangliosides, O-glycosylated mucins, and heparin sulfate. In contrast, zwitterionic phospholipids—phosphatidylcholine, phosphatidylethanolamine, and sphingomyelin—are abundant in the cytoplasmic membranes of non-cancer mammalian cells. Electrically neutral normal mammalian membranes prevent their recognition by positively charged antimicrobial peptides, and binding to these membranes is enabled by hydrophobic interactions. Thus, modulation of hydrophobicity of antimicrobial peptides, and also peptoid molecules, may be followed by non-specific interaction with erythrocytes as it was shown in previously published studies. […] Suboptimal high hydrophobic properties may not only result in increased toxicity to erythrocytes, but even in a reduction of antibacterial activity. Several protegrin-1 synthetic analogs with different hydrophobicities were characterized earlier. The analog with substitutions of valine by leucine that was more hydrophobic than naturally occurring protegrin-1 and the analog with substitutions of valine by fluorinated leucine had the most hydrophobic properties than other tested peptides. […] Therefore, half-hemolysis concentration and IC50 effective concentration were in different ranges.

[2] = system: NHA (normal human astrocytes); type: cell-based; settings: NHA normal cells; MTT after 48 h, DMEM/F12 with 10% FBS; mean ± SD of at least three independent experiments
Experimental: (§1) Cytotoxic activities of PM III, its isoforms, and tachyplesins against seven human cell lines were evaluated. Four cancer (HL-60 acute promyelocytic leukemia, HeLa cervix adenocarcinoma, SK-BR-3 breast adenocarcinoma, A549 lung carcinoma), one transformed (HEK 293T transformed human embryonic kidney), and two normal human cell lines (HEF human embryonic fibroblasts and NHA normal human astrocytes) were used for these experiments. Cytotoxicity was measured by incubating the cells with serial dilutions of PM I, PM II, PM III, TP I, TP II, or TP III samples followed by MTT assay after 48 h. The half-maximal inhibitory concentrations (IC50) were measured as the peptide concentration at which cell viability was reduced by 50% in comparison to untreated cells (Table 3).
(§2) The following tumor and transformed cell lines were used in this study: HL-60 (acute promyelocytic leukemia), HeLa (human cervix adenocarcinoma cells), SK-BR-3 (human breast adenocarcinoma cells), A549 (human lung carcinoma cells), HEK 293T (transformed human embryonic kidney cells), HEF (human embryonic fibroblasts), and NHA (normal human astrocytes) were used as normal cell lines. Tumor and transformed cell lines were obtained from the American Type Culture Collection (ATCC; www.atcc.org). Primary cells HEF (normal human embryonic fibroblasts derived from human embryonic stem cells) and NHA (normal human astrocytes derived from human fetal brain tissue) were obtained and cultured according to the corresponding protocol. Briefly, cells were cultured in DMEM/F12 (1:1) or RPMI-1640 medium containing 10% fetal bovine serum (Invitrogen, USA) at 37 °C in the atmosphere containing 5% CO2 and 95% air according to standard mammalian tissue culture protocols and using a sterile technique. All cell lines were tested by using the LookOut® Mycoplasma PCR Detection Kit (Sigma-Aldrich, St. Louis, MO, USA) according to the manufacturer’s protocol and found to be free of Mycoplasma infection.
(§3) The colorimetric 3-(4,5-dimethylthiazol-2-yl)-2,5-diphenyltetrazolium bromide (MTT) dye reduction assay was used to determine the cytotoxicity of the polyphemusins and tachyplesins. Cells (3 × 10^3–6 × 10^3 per well) were placed into 96-well plates in Dulbecco’s modified Eagle’s medium (DMEM/F12) supplemented with 10% fetal bovine serum (FBS). After incubation in the atmosphere containing 5% CO2 and 95% air at 37 °C overnight, the media were discarded, and polyphemusins or tachyplesins solutions were added to the cell cultures up to final concentrations of 2.5, 5, 10, 25, and 50 μM in a final volume of 0.1 mL DMEM/F12 with 10% FBS. HL-60 cells (4 × 10^4 in 50 μL) were added to two-time serial dilutions of polyphemusins solutions at a final concentration of 1.25, 2.5, 5, 10, 25, and 50 μM in 50 μL RPMI-1640 with 10% FBS. 48 hours later, 20 μL of MTT (5 mg/mL) was added into each well and the plates were incubated for 3 h at 37 °C. The plates with HL-60 cells were centrifuged for 10 min at 300 g. The media were discarded and 0.1 mL of dimethyl sulfoxide and isopropanol mixture at a ratio of 1:1 (v/v) was added to each well to dissolve the crystallized formazan. The absorbance at 570 nm was measured by a microplate reader (Eppendorf, Hamburg, Germany).

[3] = system: HEK 293T (transformed human embryonic kidney cells); type: cell-based; settings: MTT after 48 h, DMEM/F12 with 10% FBS, mean ± SD of at least three independent experiments
Experimental: as §1, §2, §3

[4] = system: HeLa (human cervix adenocarcinoma cells); type: cell-based; settings: MTT after 48 h, DMEM/F12 with 10% FBS, mean ± SD of at least three independent experiments
Experimental: as §1, §2, §3

[5] = system: SK-BR-3 (human breast adenocarcinoma cells); type: cell-based; settings: MTT after 48 h, DMEM/F12 with 10% FBS, mean ± SD of at least three independent experiments
Experimental: as §1, §2, §3

[6] = system: HEF (human embryonic fibroblasts); type: cell-based; settings: HEF normal cells; MTT after 48 h, DMEM/F12 with 10% FBS; mean ± SD of at least three independent experiments
Experimental: as §1, §2, §3

[7] = system: HL-60 (acute promyelocytic leukemia); type: cell-based, human; settings: MTT after 48 h, RPMI-1640 with 10% FBS, mean ± SD of at least three independent experiments
Experimental: as §1, §2, §3

Structure (SMILES)	RP-HPLC Retention Time [1] [min]	IC50 [2] [µM]	IC50 [3] [µM]	IC50 [4] [µM]	IC50 [5] [µM]	IC50 [6]	IC50 [7] [µM]
CC(C)[C@@H]1NC(=O)[C@H](CCCNC(=N)N)NC(=O)[C@H](Cc2ccccc2)NC(=O)[C@@H](NC(=O)[C@H](Cc2c[nH]c3ccccc23)NC(=O)[C@H](CCCNC(=N)N)NC(=O)[C@@H](N)CCCNC(=N)N)CSSC[C@@H](C(=O)N[C@@H](CCCNC(=N)N)C(=O)O)NC(=O)[C@H](CCCCN)NC(=O)[C@H](CCCNC(=N)N)NC(=O)[C@H](Cc2ccc(O)cc2)NC(=O)[C@@H]2CSSC[C@H](NC1=O)C(=O)N[C@@H](Cc1ccc(O)cc1)C(=O)N[C@@H](CCCNC(=N)N)C(=O)NCC(=O)N[C@@H](Cc1ccccc1)C(=O)N2 [PM I, polyphemusin I] (H-RRWCFRVCYRGFCYRKCR-OH; disulfide 4-17, 8-13 (inferred); N-terminus assumed)	35.5	14.5 ± 1.6	9.4 ± 1.5	12.5 ± 0.9	16 ± 0.6	8.3 ± 0.7 µM	7.2 ± 0.5
CC(C)[C@@H]1NC(=O)[C@H](CCCNC(=N)N)NC(=O)[C@H](Cc2ccccc2)NC(=O)[C@@H](NC(=O)[C@H](Cc2c[nH]c3ccccc23)NC(=O)[C@H](CCCNC(=N)N)NC(=O)[C@@H](N)CCCNC(=N)N)CSSC[C@@H](C(=O)N[C@@H](CCCNC(=N)N)C(=O)O)NC(=O)[C@H](CCCCN)NC(=O)[C@H](CCCNC(=N)N)NC(=O)[C@H](Cc2ccc(O)cc2)NC(=O)[C@@H]2CSSC[C@H](NC1=O)C(=O)N[C@@H](Cc1ccc(O)cc1)C(=O)N[C@@H](CCCCN)C(=O)NCC(=O)N[C@@H](Cc1ccccc1)C(=O)N2 [PM II, polyphemusin II] (H-RRWCFRVCYKGFCYRKCR-OH; disulfide 4-17, 8-13 (inferred); N-terminus assumed)	35.4	18.3 ± 1.4	11.3 ± 1.6	16.4 ± 1.3	17.3 ± 0.6	7 µM and 9.7 µM	7.2 ± 0.5
CC(C)[C@@H]1NC(=O)[C@H](CCCNC(=N)N)NC(=O)[C@H](Cc2ccccc2)NC(=O)[C@@H](NC(=O)CNC(=O)[C@H](CCCNC(=N)N)NC(=O)[C@@H](N)CCCNC(=N)N)CSSC[C@@H](C(=O)N[C@@H](CCCNC(=N)N)C(=O)O)NC(=O)[C@H](CCCNC(=N)N)NC(=O)[C@H](CCC(N)=O)NC(=O)[C@H](Cc2ccccc2)NC(=O)[C@@H]2CSSC[C@H](NC1=O)C(=O)N[C@@H](Cc1ccc(O)cc1)C(=O)N[C@@H](CCCNC(=N)N)C(=O)NCC(=O)N[C@@H](Cc1ccccc1)C(=O)N2 [PM III, polyphemusin III] (H-RRGCFRVCYRGFCFQRCR-OH; disulfide 4-17, 8-13 (inferred); N-terminus assumed)	36.2	7.5 ± 0.5	7.3 ± 0.4	6 ± 0.2	9.9 ± 0.1	7 ± 0.4 µM	2.5 ± 0.1
CC[C@H](C)[C@@H]1NC(=O)CNC(=O)[C@H](CCCNC(=N)N)NC(=O)[C@H](Cc2ccc(O)cc2)NC(=O)[C@@H]2CSSC[C@H](NC1=O)C(=O)N[C@@H](Cc1ccc(O)cc1)C(=O)N[C@@H](CCCNC(=N)N)C(=O)N[C@@H](CCCNC(=N)N)C(=O)N[C@H](C(=O)N[C@@H](CCCNC(=N)N)C(=O)O)CSSC[C@H](NC(=O)[C@H](Cc1c[nH]c3ccccc13)NC(=O)[C@@H](N)CCCCN)C(=O)N[C@@H](Cc1ccccc1)C(=O)N[C@@H](CCCNC(=N)N)C(=O)N[C@@H](C(C)C)C(=O)N2 [TP I, tachyplesin I] (H-KWCFRVCYRGICYRRCR-OH; disulfide 3-16, 7-12 (inferred); N-terminus assumed)	35.5	24.7 ± 1.8	23.5 ± 1.2	24.2 ± 1.7	30.1 ± 1.9	13 ± 1.5 µM	4.8 ± 0.3
CC[C@H](C)[C@@H]1NC(=O)CNC(=O)[C@H](CCCNC(=N)N)NC(=O)[C@H](Cc2ccc(O)cc2)NC(=O)[C@@H]2CSSC[C@H](NC1=O)C(=O)N[C@@H](Cc1ccc(O)cc1)C(=O)N[C@@H](CCCNC(=N)N)C(=O)N[C@@H](CCCCN)C(=O)N[C@H](C(=O)N[C@@H](CCCNC(=N)N)C(=O)O)CSSC[C@H](NC(=O)[C@H](Cc1c[nH]c3ccccc13)NC(=O)[C@@H](N)CCCNC(=N)N)C(=O)N[C@@H](Cc1ccccc1)C(=O)N[C@@H](CCCNC(=N)N)C(=O)N[C@@H](C(C)C)C(=O)N2 [TP II, tachyplesin II] (H-RWCFRVCYRGICYRKCR-OH; disulfide 3-16, 7-12 (inferred); N-terminus assumed)	35.9	29.4 ± 1.7	24.6 ± 1.7	24.4 ± 3	34 ± 1.3	17.7 ± 1.2 µM	5.6 ± 0.5
CC[C@H](C)[C@@H]1NC(=O)CNC(=O)[C@H](CCCNC(=N)N)NC(=O)[C@H](Cc2ccc(O)cc2)NC(=O)[C@@H]2CSSC[C@H](NC1=O)C(=O)N[C@@H](Cc1ccc(O)cc1)C(=O)N[C@@H](CCCNC(=N)N)C(=O)N[C@@H](CCCCN)C(=O)N[C@H](C(=O)N[C@@H](CCCNC(=N)N)C(=O)O)CSSC[C@H](NC(=O)[C@H](Cc1c[nH]c3ccccc13)NC(=O)[C@@H](N)CCCCN)C(=O)N[C@@H](Cc1ccccc1)C(=O)N[C@@H](CCCNC(=N)N)C(=O)N[C@@H](C(C)C)C(=O)N2 [TP III, tachyplesin III] (H-KWCFRVCYRGICYRKCR-OH; disulfide 3-16, 7-12 (inferred); N-terminus assumed)	35.5	21.3 ± 1.2	19.7 ± 1.9	13.7 ± 1.3	27.5 ± 0.8	14.1 ± 1.2 µM	5 ± 0.4
